This is an account of results in PubChem BioAssay (NCI).

SMILES strings stand for the structures.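 Exposure lasted 48 hours, with cells grown in 96-well plates and compounds tested at five concentrations. At the GI50, growth is halved. Definition used: TGI = concentration required for complete inhibition of growth.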

Some test systems named below: KM12 colon; RXF 393 renal; RPMI-8226 leukemia; HOP-62 NSCLC; EKVX NSCLC; K-562 leukemia; NCI-H460 lung; SK-OV-3 ovarian; SK-MEL-5 melanoma.
Test in all cases: growth of human tumour cells (NCI), 48 h

As to `CC(C)CCCC(C)C1CCC2C3CC([N+](=O)[O-])=C4CC(O)CCC4(C)C3CCC12C` (stereo unspecified), the TGI was found to be 37 µM in the assay with KM12 colon; 50.9 µM in the assay with RXF 393 renal; 46.9 µM in the assay on RPMI-8226 leukemia; 42.3 µM in the assay on HOP-62 NSCLC; 57.2 µM in the assay on EKVX NSCLC; 36.8 µM in the assay on K-562 leukemia.

As for `N#Cc1c(CC(=O)O)cc(=O)n2c1[nH]c1ccccc12`, the TGI in the assay with KM12 colon, with RXF 393 renal, with RPMI-8226 leukemia, in the assay on NCI-H460 lung, with HOP-62 NSCLC and with SK-OV-3 ovarian was over 100 µM in each case. The TGI in the assay with EKVX NSCLC, in the assay with SK-MEL-5 melanoma and in the assay with K-562 leukemia was over 100 µM in each case.

Regarding `Cc1ccccc1NC(=O)CC(=O)NNCC(=O)Nc1nnc(-c2ccccc2)s1`, the TGI with KM12 colon is over 100 µM; in the assay on RPMI-8226 leukemia, 75.1 µM; in the assay with NCI-H460 lung, over 100 µM; with HOP-62 NSCLC, over 100 µM; with EKVX NSCLC it was over 100 µM; in the assay on SK-MEL-5 melanoma it was over 100 µM. The TGI with K-562 leukemia was over 100 µM.

Consider `O=C1Nc2ccc(Cl)cc2/C1=N/c1nc(-c2ccc(Cl)cc2)cs1`, for which the GI50 in the assay with KM12 colon is 1.37 µM; with SK-OV-3 ovarian, 1.5 µM; with K-562 leukemia it was 1.6 µM. The figures for the TGI in the assay on KM12 colon, in the assay on SK-OV-3 ovarian and in the assay with K-562 leukemia were 4.55 µM, 4.54 µM and over 100 µM, respectively.

For the compound `O=C(CC1(O)C(=O)Nc2c(Cl)ccc(Cl)c21)c1ccc(Cl)cc1` (stereo unspecified), the TGI is 78 µM in the assay on KM12 colon; 56.8 µM with RXF 393 renal; 55.1 µM with RPMI-8226 leukemia; 61.9 µM in the assay on NCI-H460 lung; over 100 µM with HOP-62 NSCLC; 90.9 µM with SK-OV-3 ovarian. For the same compound, in the assay with EKVX NSCLC, the TGI is over 100 µM.

In the case of `CN(C)CCNC(=O)c1cccc2c1nc(-c1cccnc1)c1ccccc12`, the TGI in the assay on KM12 colon is 46.5 µM; with RXF 393 renal, 17.1 µM; with NCI-H460 lung, 12.5 µM; in the assay with HOP-62 NSCLC it was 22.3 µM; in the assay with SK-OV-3 ovarian, 31.2 µM; with EKVX NSCLC, 18.8 µM. Further, the figures for the TGI with SK-MEL-5 melanoma and in the assay on K-562 leukemia were 15.1 µM and 65.4 µM, respectively.

For `O/N=C1/C(=C/c2ccc(OCc3ccccc3)cc2)CCCC1C(NO)c1ccc(OCc2ccccc2)cc1` (stereo unspecified), the TGI is over 100 µM in the assay with KM12 colon; 24.9 µM in the assay on RXF 393 renal; over 100 µM in the assay with NCI-H460 lung; over 100 µM in the assay on HOP-62 NSCLC; over 100 µM with SK-OV-3 ovarian; over 100 µM in the assay with EKVX NSCLC. Besides, the TGI in the assay with SK-MEL-5 melanoma and with K-562 leukemia was over 100 µM throughout.

`CC1(C)CC(=O)C(C(=O)Nc2cccs2)=C(O)C1`: the TGI in the assay on KM12 colon, in the assay on RXF 393 renal, in the assay with RPMI-8226 leukemia, in the assay on NCI-H460 lung, with HOP-62 NSCLC and in the assay on SK-OV-3 ovarian was over 100 µM in each case. In addition, the TGI in the assay with EKVX NSCLC, with SK-MEL-5 melanoma and in the assay with K-562 leukemia was over 100 µM each time.

For the compound `CCOC(=O)C1C(NC(N)=O)N(Cc2ccccc2)C(=O)N1Cc1ccccc1` (stereo unspecified), the TGI in the assay with KM12 colon, in the assay with RPMI-8226 leukemia, in the assay with NCI-H460 lung, in the assay on HOP-62 NSCLC, in the assay with SK-OV-3 ovarian and with EKVX NSCLC was over 100 µM in each case. The TGI in the assay with SK-MEL-5 melanoma and with K-562 leukemia was over 100 µM each time.

On to `O=C1C[C@@H]2OCC=C3C[N+]4([O-])CC[C@]56c7ccccc7N1[C@H]5[C@H]2[C@H]3C[C@@H]64` (stereo partly specified), for which the GI50 with KM12 colon, in the assay on RXF 393 renal, with RPMI-8226 leukemia, in the assay with NCI-H460 lung, in the assay with HOP-62 NSCLC and with SK-OV-3 ovarian was over 100 µM throughout. In addition, the GI50 with EKVX NSCLC, with SK-MEL-5 melanoma and in the assay on K-562 leukemia was over 100 µM each time. For the same compound, the TGI with KM12 colon, in the assay on RXF 393 renal, in the assay with RPMI-8226 leukemia, in the assay with NCI-H460 lung, in the assay with HOP-62 NSCLC and in the assay with SK-OV-3 ovarian was over 100 µM throughout. Also, the TGI in the assay on EKVX NSCLC, in the assay on SK-MEL-5 melanoma and in the assay with K-562 leukemia was over 100 µM each time.

`CC(C)(C)C1CC[C@H]2c3c([nH]c4ccccc34)[C@H]3C(=O)N(c4ccc(F)cc4)C(=O)[C@H]3[C@H]2C1` (stereo partly specified): the TGI in the assay with KM12 colon worked out at 27.8 µM; in the assay on RXF 393 renal, 43.9 µM; in the assay with NCI-H460 lung, 26.4 µM; with HOP-62 NSCLC, 30.8 µM; with SK-OV-3 ovarian, 32 µM; with EKVX NSCLC, 36.9 µM. Besides, the figures for the TGI in the assay on SK-MEL-5 melanoma and in the assay on K-562 leukemia were 35.8 µM and 42.5 µM, respectively.

Turning to `CC(=O)NC(CCCNC(=O)OCc1ccccc1)C(=O)NCc1ccccc1` (stereo unspecified), the TGI with KM12 colon, in the assay with RXF 393 renal, with RPMI-8226 leukemia, in the assay with NCI-H460 lung, in the assay on HOP-62 NSCLC and with SK-OV-3 ovarian was over 100 µM throughout. Further, the TGI in the assay with EKVX NSCLC, in the assay on SK-MEL-5 melanoma and in the assay on K-562 leukemia was over 100 µM throughout.

With `NS(=O)(=O)c1cc2c(cc1Cl)NCNS2(=O)=O`, the TGI in the assay with KM12 colon, in the assay on RPMI-8226 leukemia, in the assay with NCI-H460 lung, in the assay with HOP-62 NSCLC, in the assay on EKVX NSCLC and in the assay with SK-MEL-5 melanoma was over 100 µM in each case. In addition, the TGI with K-562 leukemia was over 100 µM.

As to `CN(C)CCCC1(c2ccc(F)cc2)OCc2cc(-c3csc4ccccc34)ccc21` (stereo unspecified), the GI50 was 1.71 µM with KM12 colon; 1.54 µM in the assay on RXF 393 renal; 1.6 µM in the assay with NCI-H460 lung; 1.57 µM in the assay on HOP-62 NSCLC; 1.61 µM in the assay with SK-OV-3 ovarian; 1.51 µM in the assay with EKVX NSCLC. The values for the GI50 in the assay on SK-MEL-5 melanoma and in the assay with K-562 leukemia were 1.77 µM and 1.72 µM, respectively. Further, the TGI with KM12 colon amounted to 3.16 µM; in the assay with RXF 393 renal, 2.95 µM; with NCI-H460 lung, 3.18 µM; with HOP-62 NSCLC, 3.31 µM; in the assay with SK-OV-3 ovarian, 3.12 µM; in the assay on EKVX NSCLC, 2.89 µM. Moreover, the TGI with SK-MEL-5 melanoma stood at 3.17 µM; with K-562 leukemia it was 3.45 µM.
